This is an account of results in US20060287397A1, “Dl-hydroxy-alkyl-phenylamides having anticonvulsive activity” (priority 2002, published 2006).

Read-outs that look alike come from different tables or passages of the source.

Test [1] relates to Seizures induced by pentylenetetrazol (PTZ) in mice. The test can be described thus: Pentylenetetrazol test (anticonvulsant activity). Format: in vivo. To be noted: for ED50 PTZ / ED50: male CF-1 mice, compound i.p., pentylenetetrazol 100 mg kg^−1 i.p. 30 min after, end point suppression of clonic seizures and death; for ED50: Mus musculus, ip, 0.5 h; for anticonvulsant activity relative to that of the non-halogenated compounds: pentylenetetrazol test, mice, from Table 1. As for the experimental part:
Male albino mice CF-1 strain (National Institute of Virology, Mexico City) weighing 18-25 g were housed in groups of 20, at room temperature (20-24° C.), with tap water and food (pellet type Blue Bonnet) ad libitum, with a 12-h light-dark cycle. DL-2-hydroxy-2-phenyl butyramide, DL-3-hydroxy-3-phenyl pentanamide, DL-4-hydroxy-4-phenyl hexanamide and pentylenetetrazol were dissolved in water and compounds 1-10 were dissolved in a 30% polyethyleneglycol-400 solution. All the compounds used were administered intraperitoneally (i.p.). The convulsant dose of pentylenetetrazol inducing seizures and death in 100% of mice (CD100) was determined and used in the test. CD100 value obtained was 100 mg kg^1. To determine the dose-response curves five separate groups of 10-20 mice were dosed i.p. with the test compounds, and pentylenetetrazol, 100 mg kg^−1, i.p., was administered at 30 min after. The suppression of clonic seizures and death was considered the end point of the test. […] The ED50 and 95% confidence intervals were calculated by the method of Litchfield and Wilcoxon (Table 1). See Litchfield et al., J. Pharmacol. Exp. Ther. 96, 99 (1949).

For test [2], the system named is seizures provoked by pentylenetetrazole, bicuculline, 4-aminopyridine, thiosemicarbazide and maximal electroshock. To be noted: mice; cited from earlier work.
In test [3] the test system is hippocampal kindling. To be noted: cats; cited from earlier work.
The test system of test [4] is hippocampal kindling. To be noted: rats; cited from earlier work.
The test system of test [5] is γ-aminobutyric acid withdrawal syndrome. To be noted: rats; cited from earlier work.
For a further test, the system named is focal spike activity. Particulars: genetic absence epilepsy rats of the Strasbourg model; cited from earlier work.

Take `CCC(O)(CCC(N)=O)c1ccccc1` (racemic) [DL-4-hydroxy-4-Phenylhexanamide, DL-4-hydroxy-4-phenylhexanamide]: the “ED50 PTZ” value in test [1] came out at 55 mgkg^−1. Moreover, in test [2], the protection against seizures entry is given as “protect mice against seizures”. Further, the “protection against hippocampal kindling” value is “protect cats and rats against hippocampal kindling” with hippocampal kindling [3]; “protect cats and rats against hippocampal kindling” with hippocampal kindling [4].
Consider `CCC(O)(C(N)=O)c1cc(C(F)(F)F)cc(C(F)(F)F)c1` (racemic) [Compound 1, DL-2-hydroxy-2-(3′,5′-bistrifluoromethylphenyl) butyramide], for which, in test [1], the 50% effect level (ED50) was put at a dose of 10 mg/kg and the “anticonvulsant activity relative to that of the non-halogenated compounds” value is on record as “more than fivefold, sixfold or sevenfold”.
For the molecule `CCC(O)(C(N)=O)c1cccc(Br)c1` (racemic) [Compound 4, DL-2-hydroxy-2-(3′-bromophenyl)butyramide], in test [1], it took a dose of 8 mg/kg to reach the 50% effect level (ED50) and the “anticonvulsant activity relative to that of the non-halogenated compounds” value is on record as “more than fivefold, sixfold or sevenfold”.
For `CCC(O)(C(N)=O)c1ccccc1` (racemic) [DL-2-hydroxy-2-Phenyl butyramide, DL-2-hydroxy-2-phenylbutyramide], in test [1], the “ED50 PTZ” value is recorded as 58 mgkg^−1. In test [2], the protection against seizures result is “protect mice against seizures”. Besides, the “protection against hippocampal kindling” value in the test with hippocampal kindling [3] was “protect cats and rats against hippocampal kindling”; in the test with hippocampal kindling [4] it was “protect cats and rats against hippocampal kindling”.
On to `CCC(O)(CC(N)=O)c1ccc(Cl)c(Cl)c1` (racemic) [Compound 7, DL-3-hydroxy-3-(3′,4′-dichlorophenyl)pentanamide], for which, in test [1], the ED50 stood at 16 mg/kg and the “anticonvulsant activity relative to that of the non-halogenated compounds” value is recorded as “twice, threefold or more than fourfold”.
For the molecule `CCC(O)(CC(N)=O)c1ccccc1` (racemic) [DL-3-hydroxy-3-Phenyl pentanamide, DL-3-hydroxy-3-phenylpentanamide], in test [1], the “ED50 PTZ” value came to 49 mgkg^−1. The protection against seizures entry in test [2] is “protect mice against seizures”. For the same molecule, the “protection against hippocampal kindling” value is “protect cats and rats against hippocampal kindling” with hippocampal kindling [3]; “protect cats and rats against hippocampal kindling” in the test on hippocampal kindling [4]. In addition, in test [5], the “protection against γ-aminobutyric acid withdrawal syndrome” value was “protects rats against the γ-aminobutyric acid withdrawal syndrome”. In addition, in the test on focal spike activity, the focal spike activity result is listed as “significant decrease of focal spike activity”.
On to `CCC(O)(C(N)=O)c1ccc(Br)cc1` (racemic) [Compound 5, DL-2-hydroxy-2-(4′-bromophenyl)butyramide], for which, in test [1], the ED50 amounted to 8 mg/kg and the “anticonvulsant activity relative to that of the non-halogenated compounds” value is “more than fivefold, sixfold or sevenfold”.
Regarding `CCC(O)(CC(N)=O)c1ccc(Br)cc1` (racemic) [Compound 8, DL-3-hydroxy-3-(4′-bromophenyl) pentanamide], in test [1], the 50% effect level (ED50) was put at a dose of 8 mg/kg and the “anticonvulsant activity relative to that of the non-halogenated compounds” value was “more than fivefold, sixfold or sevenfold”.
Take `CCC(O)(C(N)=O)c1ccc(Cl)c(Cl)c1` (racemic) [Compound 3, DL-2-hydroxy-2-(3′,4′-dichlorophenyl)butyramide]: in test [1], the ED50 was determined as 10 mg/kg and the “anticonvulsant activity relative to that of the non-halogenated compounds” value is listed as “more than fivefold, sixfold or sevenfold”.
With `CCC(O)(C(N)=O)c1cccc([N+](=O)[O-])c1` (racemic) [Compound 6, DL-2-hydroxy-2-(3′-nitrophenyl)butyramide], in test [1], the median effective dose (ED50) amounted to 36 mg/kg and the “anticonvulsant activity relative to that of the non-halogenated compounds” value is given as “twice, threefold or more than fourfold”.
In the case of `CCC(O)(C(N)=O)c1ccc(C(F)(F)F)cc1` (racemic) [Compound 2, DL-2-hydroxy-2-(4′-trifluoromethylphenyl)butyramide], in test [1], the ED50 is 23 mg/kg and the “anticonvulsant activity relative to that of the non-halogenated compounds” value was “twice, threefold or more than fourfold”.
On to `CCC(O)(CCC(N)=O)c1ccc(Br)cc1` (racemic) [Compound 10, DL-4-hydroxy-4-(4′-bromophenyl)hexanamide], for which, in test [1], the 50% effect level (ED50) was put at a dose of 9 mg/kg and the “anticonvulsant activity relative to that of the non-halogenated compounds” value is reported as “more than fivefold, sixfold or sevenfold”.
Turning to `CCC(O)(CCC(N)=O)c1ccc(Cl)c(Cl)c1` (racemic) [Compound 9, DL-4-hydroxy-4-(3′,4′-dichlorophenyl)hexanamide], in test [1], the 50% effect level (ED50) was put at a dose of 12 mg/kg and the “anticonvulsant activity relative to that of the non-halogenated compounds” value is “twice, threefold or more than fourfold”.
